Key:
[1] = [14C]RD162′ radio-HPLC metabolite profile in Pooled Rat Plasma; format: in vivo, Sprague Dawley rats; details: [14C]RD162′ 100 mg/kg/day oral, day 7, 4 h
Experimental: The rats were dosed once a day for seven consecutive days; four hours after dosing on the seventh day, plasma was collected from all three rats. The plasma samples were stored at approximately −70° C. or colder.
Positive ion electrospray LC/MS and LC/MS/MS were used to analyze the metabolites.
To prepare the Pooled Rat Plasma for HPLC analysis, approximately 1 g of the plasma sample was combined with acetonitrile (ACN, sample:ACN, 1:3, v:v), vortex mixed, sonicated in cold water, centrifuged, and the supernatants were removed. The extraction was repeated twice and the respective supernatants were combined. […] The combined supernatants were evaporated to dryness and reconstituted in 1 mL of 0.1% formic acid in reverse osmosis (RO) water:ACN: methanol (MeOH, 50:45:5, v:v:v). […] The reconstituted sample was analyzed by HPLC to determine the metabolite profile with fractions collected at 10-second intervals and analyzed by solid scintillation counting.
The prepared samples were analyzed using the following LC/MS/MS conditions: HPLC: Hewlett Packard 1100 series; Mobile Phase: 0.1% formic acid in reverse osmosis water (A) and acetonitrile (B); Column: Agilent Eclipse XDB-C18, 4.6×150 mm, 5 μm; Guard column: Phenomenex Security Guard Cartridge C18, 3×4 mm; Column temperature: 20° C.; Gradient: 20-80% B in 40 min; Flow Rate: 1.5 mL/min.

[2] = target: T1, Androgen Receptor (Homo sapiens, UniProt P10275); test: Androgen Receptor Nuclear Translocation Assay; format: cell-based; details: agonist mode; PathHunter NHRPro cells; 5 h; read-out: AR Nuclear Translocation Assay Agonist Mode EC50
T1 construct: expressed in transfected cells; host or cells: PathHunter NHRPro cell lines
T1 sequence (P10275 1-920): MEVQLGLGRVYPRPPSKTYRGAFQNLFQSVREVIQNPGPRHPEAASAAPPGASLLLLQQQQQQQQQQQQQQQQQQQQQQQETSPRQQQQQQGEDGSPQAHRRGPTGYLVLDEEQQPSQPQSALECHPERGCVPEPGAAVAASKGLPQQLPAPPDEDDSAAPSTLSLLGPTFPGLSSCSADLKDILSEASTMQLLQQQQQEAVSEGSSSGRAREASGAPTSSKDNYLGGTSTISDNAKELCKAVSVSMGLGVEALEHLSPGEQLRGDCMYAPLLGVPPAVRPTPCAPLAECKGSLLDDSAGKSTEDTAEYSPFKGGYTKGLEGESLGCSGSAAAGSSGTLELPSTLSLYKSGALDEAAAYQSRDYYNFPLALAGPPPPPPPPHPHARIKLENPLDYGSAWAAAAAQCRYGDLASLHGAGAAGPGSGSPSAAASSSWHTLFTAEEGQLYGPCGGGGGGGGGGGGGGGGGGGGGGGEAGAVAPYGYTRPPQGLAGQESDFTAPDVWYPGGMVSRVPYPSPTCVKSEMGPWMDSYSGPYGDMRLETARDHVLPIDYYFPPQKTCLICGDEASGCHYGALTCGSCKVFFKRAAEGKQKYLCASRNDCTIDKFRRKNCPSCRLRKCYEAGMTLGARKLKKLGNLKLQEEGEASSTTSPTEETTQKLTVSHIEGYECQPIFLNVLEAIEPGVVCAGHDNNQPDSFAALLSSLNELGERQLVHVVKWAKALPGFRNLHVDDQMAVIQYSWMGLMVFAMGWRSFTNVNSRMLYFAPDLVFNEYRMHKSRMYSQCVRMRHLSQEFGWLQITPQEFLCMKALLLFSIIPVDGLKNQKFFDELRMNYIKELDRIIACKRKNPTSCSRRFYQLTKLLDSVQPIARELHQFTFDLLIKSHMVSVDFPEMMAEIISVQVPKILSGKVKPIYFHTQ
Experimental: Once it was established that the cells were healthy and growing normally, cells were transferred from flasks using trypsin-free cell dissociation buffer and seeded into white walled clear bottom 384-well microplates for compound profiling. For profiling, cells were seeded at a density of 10,000 cells per well in a total volume of 50 μL and were allowed to adhere and recover overnight prior to compound addition. Media contained charcoal-dextran filtered serum to reduce the level of hormones present.
Agonist Format: Intermediate dilution of compound stocks were generated such that 5.5 μL of 10X compound could be added to each well with a final DMSO concentration of 1% of total volume. For profiling compound in agonist mode, the cells were incubated in the presence of compound at 37° C. for 5 h.
Antagonist Format: Agonist dose curves were performed to determine the EC80 value for the following antagonist testing with compounds. 5.5 μL of 10× agonist was added to each well with an equal concentration of vehicle present. EC80 agonist concentration was determined directly from agonist dose curve. For antagonist determination, cells were pre-incubated with antagonist followed by agonist challenge at the EC80 concentration: 5.5 μL of 10× compound added to cells and incubated at 37° C. for 1 h; 5.5 μL of 11× EC80 agonist added to cells and incubated at 37° C. for 5 h.
Signal Detection: After appropriate compound incubation, assay signal was generated through a single addition of 30 μL (50% v/v) of PathHunter Detection reagent cocktail for agonist and antagonist assays respectively followed by 1 h incubation at room temperature. Microplates were read following signal generation with a PerkinElmer ViewLux™ instrument for chemiluminescent signal detection.
Data Analysis: Dose curves in the presence and absence of compound were plotted using GraphPad Prism.

| Compound | % Injected Radioactivity (%) [1] [%] | % Recovered Radioactivity (%) [1] [%] | Peak Area (mV) [1] [mV] | Peak Height (mV) [1] [mV] | EC50 [2] [nM] |
| --- | --- | --- | --- | --- | --- |
| CC1(C)C(=O)N(c2ccc(C#N)c(C(F)(F)F)c2)C(=O)N1c1ccc(C(=O)O)c(F)c1 [(MV), 4-(3-(4-cyano-3-(trifluoromethyl)phenyl)-5,5-dimethyl-2,4-dioxoimidazolidin-1-yl)-2-fluorobenzoic acid] | 5.76 | 9.05 | 308 | 49 | – |
| Norgesterol [reference compound] | – | – | – | – | 2.9 |

Reference: patent publication US8524755B2 (priority 2009, dated 2013)
